Reference: patent US8951541B2, “Method of modifying dissolution rate of particles by addition of hydrophobic nanoparticles” (3M Innovative Properties Company, priority 2010, dated 2015)

Test: Rate of dissolution of acetaminophen and acetaminophen/nanoparticle mixtures in DIW by UV/Vis absorbance at 243 nm
Type: physicochemical
Settings: 0.013 g in 1000 mL DIW
Experimental: The following procedure (similar to USP30-NF 25, Mar. 17, 2008) was used to measure the rate and intensity of dissolution of acetaminophen and acetaminophen/nanoparticle mixtures in Millipore H2O (i.e., DIW).
Three samples of acetaminophen were weighed out. One sample was used as a control sample (Comparative K). A pre-determined amount of surface modified nanoparticles were added to each of the other samples. Sample 14 was combined with 1 weight percent nanoparticles (0.013 g) and sample 15 was combined with 0.5 weight percent nanoparticles (0.0065 g). Each blended sample was prepared by adding the nanoparticles to the acetaminophen. […]
Each blended sample was then measured separately by adding to different glass beakers, each of which contained 1000 mL of DIW and a magnetic stir-bar. […] 0.013 g of the blended samples were measured out and added to the stirred DIW.
While the acetaminophen was being dissolved in the DIW, 1.5 mL samples of the DIW and acetaminophen mixtures were removed every two minutes by pipette. The UV/Vis spectra of the samples were immediately measured using a UV/Vis spectrophotometer (obtained from PerkinElmer, Waltham, Mass., under the trade designation “LAMBDA 35 UV/VIS SPECTROPHOTOMETER), specifically focusing on the 243 nm absorbance.
This was determined to be the final measured value needed for subsequent experiments. […]

- absorbance intensity at 243 nm (final measured value) (stirred, plateau value): approximately 0.86
- Slope (slope between first two time points: change in absorbance at 243 nm/change in time, in seconds): 0.0029
Structure (SMILES): CC(=O)Nc1ccc(O)cc1 [Comparative K, acetaminophen]
